Measurements from patent publication US12673041B2, “4-aminobut-2-enamide derivatives and salt thereof” (TAIHO PHARMACEUTICAL CO., LTD., priority 2019, dated 2026).
Read-outs that look alike come from different tables or passages of the source.

Assays:
[1] = molecular target: T1, activated KRAS in NCI-H358 (Homo sapiens, UniProt P01116, G12C); assay: Amount of activated KRAS on KRAS-G12C mutant cell line NCI-H358 (Ras GTPase Chemi ELISA); type: cell-based; conditions: for IC50: 1 hour with compound
T1 construct: host or cells: NCI-H358
Method: NCI-H358 [H358, H358] (ATCC® CRL5807™), which is a KRAS-G12C mutant human lung cancer cell line, and MIA PaCa-2 (ATCC® CRL-1420™), which is a KRAS-G12C mutant human pancreas cancer cell line, were suspended in a 10% fetal bovine serum-containing RPMI1640 medium (manufactured by Thermo Fischer SCIENTIFIC), respectively. The cell suspension was seeded into a cell culture plate and cultured in an incubator containing 5% CO2 gas at 37° C. for 1 day. The lyophilized recombinant human EGF protein (R&D systems, Cat #: 236-EG-200) was dissolved in PBS to make 0.5 mg/ml solution. […] Then, the compounds obtained in the “Preparation of Compounds” section were used as test compounds and were dissolved in DMSO, and each test compound was diluted with DMSO to give a concentration 200 times the final concentration. The solution of the test compound in DMSO was diluted with the medium used for suspending cells and added to each well of the cell-culture plate to give a DMSO final concentration of 0.5%, followed by culture in an incubator containing 5% CO2 gas at 37° C. for another 1 hour. The amount of activated KRAS after 1 hour culture in the presence of the compound was measured using Ras GTPase Chemi ELISA Kit (manufactured by Active Motif). The ratio of KRAS activity was calculated from the following equation, and the concentration of the test compound at which activity was suppressed to 50% (IC50 (μM)) was determined. […] The Ratio of KRAS activity to control (%)=(T−BG)/(C−BG)×100 • T: the emission intensity in a well into which a test compound was added. • C: the emission intensity in a well into which a test compound was not added. • BG: the emission intensity in a well into which neither a test compound nor a cell suspension was added.

[2] = molecular target: Gppcp-bound recombinant K-Ras4B G12C mutant protein (amino acids 1-169, C51S/C80L/C118S) (Homo sapiens, UniProt P01116, C118S/C51S/C80L/G12C); assay: KRASG12C binding assay (LC-MS compound binding rate); conditions: test compound final concentration 0.5 μM, 25° C., 1 hour
In short: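 Gppcp-bound K-Ras4B G12C (aa 1-169, C51S/C80L/C118S) at 50 nM in 1×TBS, 0.1 mM TCEP, 0.25 mM MgCl2, 50 μM Gppcp was incubated 1 hour at 25° C with compound at 0.5 μM final. Intact-protein LC-MS gave binding rate as single-adduct signal over total KRAS signal, graded A (≥80%) to E (<20%).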

[3] = NCI-H358, with EGF 100 ng/ml, read-out: IC50 NCI-H358 with EGF
[4] = NCI-H358, without EGF, read-out: IC50 NCI-H358 without EGF

IC50 [1, 3] [nM] | IC50 [1, 4] [nM] | Compound | KRAS inhibition activity under EGF treatment ([1]; NCI-H358, EGF treatment) | binding rate [2]
850 | 750 | CCc1nc2cc(-c3cccc(NC(=O)c4ccc(NC(=O)/C=C/CN[C@H]5CC[C@H](OC)CC5)c(C#N)c4)c3)c(C(F)(F)F)cc2n1C [Example 1, 3-cyano-N-(3-(2-ethyl-1-methyl-6-(trifluoromethyl)-1H-benzo[d]imidazol-5-yl)phenyl)-4-((E)-4-(((1r, 4r)-4-methoxycyclohexyl)amino)but-2-enamido)benzamide] | – | A (A binding rate of 80% or more is rated “A”)
470 | 390 | CO[C@H]1CC[C@H](NC/C=C/C(=O)Nc2ccc(C(=O)c3ccc4c(-c5cc6ncn(C)c6cc5C)cccn34)cc2C#N)CC1 [Example 4, (E)-N-(2-cyano-4-(8-(1,6-dimethyl-1H-benzo[d]imidazol-5-yl)indolizine-3-carbonyl)phenyl)-4-(((1r,4r)-4-methoxycyclohexyl)amino)but-2-enamide] | – | A (A binding rate of 80% or more is rated “A”)

Compound | IC50 [1, 3] [nM] | IC50 [1, 4] [nM] | KRAS inhibition activity under EGF treatment ([1]; NCI-H358, EGF treatment) | binding rate [2]
C=CC(=O)N1CCN(c2ncnc3c(F)c(-c4c(O)cccc4F)c(Cl)cc23)CC1 [ARS-1620, reference compound] | 5400 | 1400 | attenuated by EGF treatment | E (a binding rate of less than 20% is rated “E”)
